Holding throughout (assay): relative viability (nuclei count vs DMSO), 5 days (fraction); higher = more cells survive
Compound in the test “GSK126 + Luminespib”: CC[C@H](C)N1C=C(C2=C(C=C(C=C21)C3=CN=C(C=C3)N4CCNCC4)C(=O)NCC5=C(C=C(NC5=O)C)C)C [GSK126] + CCNC(=O)c1noc(-c2cc(C(C)C)c(O)cc2O)c1-c1ccc(CN2CCOCC2)cc1 [Luminespib] (partner 0.01 µM)
The essentials:
(§1)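 Dosing by pin tool came one day after lung cancer cell lines were seeded in 1536-well plates, using either one drug or a fixed anchor-drug dose plus five library-drug doses (not always all listed) in √10 steps. After 5 days, nuclei were counted on 4× images. Relative viability is treated-well nuclei count divided by vehicle-well nuclei count, and values are medians of duplicate plates.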

Compound in the test “MLN4924 + Decitabine”: NS(=O)(=O)OC[C@@H]1C[C@@H](n2ccc3c(N[C@H]4CCc5ccccc54)ncnc32)C[C@@H]1O [MLN4924] + Nc1ncn([C@H]2C[C@H](O)[C@@H](CO)O2)c(=O)n1 [Decitabine] (partner 2 µM)
The essentials: as §1

Compound in the test “MLN4924 + Bortezomib”: NS(=O)(=O)OC[C@@H]1C[C@@H](n2ccc3c(N[C@H]4CCc5ccccc54)ncnc32)C[C@@H]1O [MLN4924] + CC(C)C[C@H](NC(=O)[C@H](Cc1ccccc1)NC(=O)c1cnccn1)B(O)O [Bortezomib] (partner 0.002 µM)
The essentials:
as §1

Compound in the test “GSK126 + Crizotinib”: CC[C@H](C)N1C=C(C2=C(C=C(C=C21)C3=CN=C(C=C3)N4CCNCC4)C(=O)NCC5=C(C=C(NC5=O)C)C)C [GSK126] + C[C@@H](Oc1cc(-c2cnn(C3CCNCC3)c2)cnc1N)c1c(Cl)ccc(F)c1Cl [Crizotinib] (partner 1 µM)
The essentials: as §1

For UMC-11, the relative viability with GSK126 + Luminespib (first compound 0.08 µM) came to 1.19; with GSK126 + Luminespib (first compound 0.253 µM), 1.07; with GSK126 + Luminespib (first compound 0.8 µM), 1.04; with GSK126 + Luminespib (first compound 2.53 µM) it was 1.07; in the test with GSK126 + Luminespib (first compound 8 µM), 1.31; in the test with MLN4924 + Decitabine (first compound 0.04 µM), 0.559. The relative viability with MLN4924 + Decitabine (first compound 0.1265 µM) worked out at 0.511; in the test with MLN4924 + Decitabine (first compound 0.4 µM), 0.402; in the test with MLN4924 + Decitabine (first compound 1.265 µM), 0.309; in the test with MLN4924 + Decitabine (first compound 4 µM), 0.277; in the test with MLN4924 + Bortezomib (first compound 0.04 µM) it was 0.529; with MLN4924 + Bortezomib (first compound 0.1265 µM), 0.301. Also, the relative viability with MLN4924 + Bortezomib (first compound 0.4 µM) came to 0.269; in the test with MLN4924 + Bortezomib (first compound 1.265 µM), 0.1; with MLN4924 + Bortezomib (first compound 4 µM) it was 0.0977; in the test with GSK126 + Crizotinib (first compound 0.08 µM), 0.723; in the test with GSK126 + Crizotinib (first compound 0.253 µM) it was 0.689; in the test with GSK126 + Crizotinib (first compound 0.8 µM) it was 0.604. Also, the relative viability with GSK126 + Crizotinib (first compound 2.53 µM) amounted to 0.523; with GSK126 + Crizotinib (first compound 8 µM), 0.525.

Values taken from the supplement of paper PMC10307832.
